Data reported in patent publication US20210070748A1, “INHIBITORS OF BRUTONS TYROSINE KINASE” (Pharmacyclics LLC, priority 2015, published 2021).

Tests used:
Type in all cases: biochemical
JAK3 = target: T1, JAK3 (Homo sapiens, UniProt P52333); test: Inhibition of a panel of kinases, in vitro HotSpot kinase assay: JAK3; conditions: D-compounds panel data; 1 μM ATP; read-out: IC50 JAK3
T1 sequence (P52333 1-1124): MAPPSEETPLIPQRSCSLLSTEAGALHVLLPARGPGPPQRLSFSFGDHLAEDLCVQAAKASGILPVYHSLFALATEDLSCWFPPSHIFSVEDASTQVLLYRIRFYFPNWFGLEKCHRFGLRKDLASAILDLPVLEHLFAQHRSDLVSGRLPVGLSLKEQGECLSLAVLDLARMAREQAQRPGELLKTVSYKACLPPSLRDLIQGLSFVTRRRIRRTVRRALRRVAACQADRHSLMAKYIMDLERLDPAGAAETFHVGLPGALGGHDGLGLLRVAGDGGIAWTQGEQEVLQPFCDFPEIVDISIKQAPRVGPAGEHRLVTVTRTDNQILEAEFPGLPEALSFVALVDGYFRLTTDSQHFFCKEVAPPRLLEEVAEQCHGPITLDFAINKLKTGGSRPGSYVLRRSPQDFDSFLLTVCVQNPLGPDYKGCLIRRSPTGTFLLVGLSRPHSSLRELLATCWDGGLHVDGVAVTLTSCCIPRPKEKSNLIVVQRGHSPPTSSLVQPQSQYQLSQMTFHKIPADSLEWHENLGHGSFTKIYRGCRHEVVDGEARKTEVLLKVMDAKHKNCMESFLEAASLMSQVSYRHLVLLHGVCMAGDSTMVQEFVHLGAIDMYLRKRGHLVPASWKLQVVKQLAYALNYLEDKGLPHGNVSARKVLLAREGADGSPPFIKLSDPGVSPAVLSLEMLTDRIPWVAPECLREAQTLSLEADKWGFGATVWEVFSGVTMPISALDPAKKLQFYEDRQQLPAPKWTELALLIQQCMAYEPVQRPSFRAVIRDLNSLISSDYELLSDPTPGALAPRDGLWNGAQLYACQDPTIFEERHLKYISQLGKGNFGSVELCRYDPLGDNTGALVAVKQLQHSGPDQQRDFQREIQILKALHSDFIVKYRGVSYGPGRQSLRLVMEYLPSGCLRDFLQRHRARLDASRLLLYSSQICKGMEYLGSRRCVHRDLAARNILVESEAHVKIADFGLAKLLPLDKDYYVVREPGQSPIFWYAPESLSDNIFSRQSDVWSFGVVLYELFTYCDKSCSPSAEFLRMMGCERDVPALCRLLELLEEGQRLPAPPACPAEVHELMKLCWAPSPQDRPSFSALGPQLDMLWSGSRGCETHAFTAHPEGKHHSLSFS

SRC = SRC (Homo sapiens, UniProt P12931); test: Inhibition of a panel of kinases, in vitro HotSpot kinase assay: SRC; conditions: D-compounds panel data; 1 μM ATP
Description: (§1) The degree of inhibition of a panel of kinases is determined using the in vitro HotSpot kinase assay (purified enzymes, ^33P-ATP, an appropriate substrate and 1 μM ATP).

TEC = target: T2, TEC (Homo sapiens, UniProt P42680); test: Inhibition of a panel of kinases, in vitro HotSpot kinase assay: TEC; conditions: D-compounds panel data; 1 μM ATP
T2 sequence (P42680 1-631): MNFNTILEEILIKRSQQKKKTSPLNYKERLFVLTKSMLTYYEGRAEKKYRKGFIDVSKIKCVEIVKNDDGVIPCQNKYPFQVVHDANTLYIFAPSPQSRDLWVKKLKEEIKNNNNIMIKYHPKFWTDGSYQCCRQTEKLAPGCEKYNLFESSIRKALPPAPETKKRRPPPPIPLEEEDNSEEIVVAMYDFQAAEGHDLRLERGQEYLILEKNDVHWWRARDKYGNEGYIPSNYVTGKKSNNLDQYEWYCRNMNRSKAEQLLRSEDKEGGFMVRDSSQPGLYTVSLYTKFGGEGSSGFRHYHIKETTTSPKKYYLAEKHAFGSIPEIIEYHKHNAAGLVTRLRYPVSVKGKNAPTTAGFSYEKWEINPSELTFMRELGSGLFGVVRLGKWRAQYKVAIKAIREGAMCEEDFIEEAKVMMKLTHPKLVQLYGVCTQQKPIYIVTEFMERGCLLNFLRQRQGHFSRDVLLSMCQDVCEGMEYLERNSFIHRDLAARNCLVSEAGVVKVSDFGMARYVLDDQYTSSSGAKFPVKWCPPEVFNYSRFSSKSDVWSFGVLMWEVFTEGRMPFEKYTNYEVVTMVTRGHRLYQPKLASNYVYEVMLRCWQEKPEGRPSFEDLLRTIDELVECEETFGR
Description: as §1

Sequence of SRC (P12931 whole entry): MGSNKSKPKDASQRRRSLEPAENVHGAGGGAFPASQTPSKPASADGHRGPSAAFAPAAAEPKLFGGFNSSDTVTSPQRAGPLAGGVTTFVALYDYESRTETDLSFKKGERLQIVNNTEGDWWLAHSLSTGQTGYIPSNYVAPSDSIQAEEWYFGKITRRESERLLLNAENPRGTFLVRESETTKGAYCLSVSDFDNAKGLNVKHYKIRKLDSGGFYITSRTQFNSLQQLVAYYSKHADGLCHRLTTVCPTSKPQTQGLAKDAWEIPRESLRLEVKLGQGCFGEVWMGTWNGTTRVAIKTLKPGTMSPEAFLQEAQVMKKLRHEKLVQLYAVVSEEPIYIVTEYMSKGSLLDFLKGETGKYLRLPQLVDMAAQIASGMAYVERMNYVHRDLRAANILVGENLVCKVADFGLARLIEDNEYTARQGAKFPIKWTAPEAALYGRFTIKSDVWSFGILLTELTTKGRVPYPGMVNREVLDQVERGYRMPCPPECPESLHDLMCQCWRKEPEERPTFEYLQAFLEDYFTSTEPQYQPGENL

IC50 (JAK3) [µM]	IC50 (SRC) [µM]	IC50 (TEC) [µM]	Structure (SMILES)
0.1 to 1	0.01 to 0.1	≤ 0.01	CC(C)n1nnc2cc(C(=O)N[C@@H]3CCCN(c4cnc(C(N)=O)c(Nc5cnn(C)c5)n4)[C@@H]3C)ccc21 [Example D-255, N-[(2R,3R)-1-{5-carbamoyl-6-[(1-methyl-i H-pyrazol-4-yl)amino]pyrazin-2-yl}-2-methylpiperidin-3-yl]-1-(propan-2-yl)-1H-1,2,3-benzotriazole-5-carboxamide]
1 to 10	0.01 to 0.1	0.01 to 0.1	CC(=O)N1CCC(c2ccc(Nc3nc(N4CCC[C@@H](NC(=O)c5ccc(C6CC6)cc5)[C@H]4C)cnc3C(N)=O)cc2)CC1 [Example D-296, 3-{[4-(1-acetylpiperidin-4-yl)phenyl]amino}-5-[(2R,3R)-3-(4-cyclopropylbenzamido)-2-methylpiperidin-1-yl]pyrazine-2-carboxamide]
1 to 10	0.1 to 1	0.01 to 0.1	C[C@@H]1[C@H](NC(=O)c2ccc(C3CC3)cc2)CCCN1c1cnc(C(N)=O)c(Nc2cnn(CCO)c2)n1 [Example D-281, 5-[(2R,3R)-3-(4-cyclopropylbenzamido)-2-methylpiperidin-1-yl]-3-{[I-(2-hydroxyethyl)-1H-pyrazol-4-yl]amino}pyrazine-2-carboxamide]
0.1 to 1	0.01 to 0.1	≤ 0.01	C[C@@H]1[C@H](NC(=O)c2ccc(C3CC3)cc2F)CCCN1c1cnc(C(N)=O)c(Nc2ccc(N3CCNCC3)c(F)c2)n1 [Example D-313, 5-[(2R,3R)-3-(4-cyclopropyl-2-fluorobenzamido)-2-methylpiperidin-1-yl]-3-{[3-fluoro-4-(piperazin-1-yl)phenyl]amino}pyrazine-2-carboxamide]
0.1 to 1	0.1 to 1	0.01 to 0.1	C[C@@H]1[C@H](NC(=O)c2cc3c(n2C)CC(C)(C)C3)CCCN1c1cnc(C(N)=O)c(Nc2cnn(C)c2)n1 [Example D-19, 3-[(1-methyl-1H-pyrazol-4-yl)amino]-5-[(2R,3R)-2-methyl-3-{1,5,5-trimethyl-1H,4H,5H,6H-cyclopenta[b]pyrrole-2-amido}piperidin-1-yl]pyrazine-2-carboxamide]
0.1 to 1	0.01 to 0.1	≤ 0.01	C[C@@H]1[C@H](NC(=O)c2ccc(C3CC3)nc2)CCCN1c1cnc(C(N)=O)c(Nc2ccc(OC3CCN(C)CC3)cc2)n1 [Example D-294, 5-[(2R,3R)-3-(6-cyclopropylpyridine-3-amido)-2-methylpiperidin-1-yl]-3-({4-[(1-methylpiperidin-4-yl)oxy]phenyl}amino)pyrazine-2-carboxamide]
0.1 to 1	0.01 to 0.1	0.01 to 0.1	C[C@@H]1[C@H](NC(=O)c2ccc(C3CC3)cc2)CCCN1c1cnc(C(N)=O)c(Nc2cc(C3CCN(C4CCCC4)CC3)ns2)n1 [Example D-311, 3-{[3-(1-cyclopentylpiperidin-4-yl)-1,2-thiazol-5-yl]amino}-5-[(2R,3R)-3-(4-cyclopropylbenzamido)-2-methylpiperidin-1-yl]pyrazine-2-carboxamide]
1 to 10	0.01 to 0.1	≤ 0.01	Cc1cc2cc(C(=O)N[C@@H]3CCCN(c4cnc(C(N)=O)c(Nc5cnn(C)c5)n4)[C@@H]3C)ccc2o1 [Example D-246, 3-[(1-methyl-1H-pyrazol-4-yl)amino]-5-[(2R,3R)-2-methyl-3-(2-methyl-1-benzofuran-5-amido)piperidin-1-yl]pyrazine-2-carboxamide]
0.1 to 1	0.01 to 0.1	≤ 0.01	C[C@@H]1[C@H](NC(=O)c2ccc(C3CC3)cc2)CCCN1c1cnc(C(N)=O)c(Nc2cc(C3CCOCC3)ns2)n1 [Example D-310, 5-[(2R,3R)-3-(4-cyclopropylbenzamido)-2-methylpiperidin-1-yl]-3-{[3-(oxan-4-yl)-1,2-thiazol-5-yl]amino}pyrazine-2-carboxamide]
1 to 10	0.1 to 1	0.01 to 0.1	C[C@@H]1[C@H](NC(=O)c2ccc(C3CC3)cc2Cl)CCCN1c1cnc(C(N)=O)c(Nc2cnn(C)c2)n1 [Example D-20, 5-[(2R,3R)-3-(2-chloro-4-cyclopropylbenzamido)-2-methylpiperidin-1-yl]-3-[(1-methyl-1H-pyrazol-4-yl)amino]pyrazine-2-carboxamide]
1 to 10	0.01 to 0.1	0.01 to 0.1	C[C@@H]1[C@H](NC(=O)c2ccc(C(C)(C)C)cc2)CCCN1c1cnc(C(N)=O)c(Nc2ccc(OC3CCN(C)CC3)cc2)n1 [Example D-291, 5-[(2R,3R)-3-(4-tert-butylbenzamido)-2-methylpiperidin-1-yl]-3-({4-[(1-methylpiperidin-4-yl)oxy]phenyl}amino)pyrazine-2-carboxamide]
> 10	0.01 to 0.1	0.01 to 0.1	C[C@@H]1[C@H](NC(=O)c2ccc(C3CC3)nc2)CCCN1c1cnc(C(N)=O)c(Nc2ccc(N3CCC(F)(F)CC3)cc2)n1 [Example D-305, 5-[(2R,3R)-3-(6-cyclopropylpyridine-3-amido)-2-methylpiperidin-1-yl]-3-{[4-(4,4-difluoropiperidin-1-yl)phenyl]amino}pyrazine-2-carboxamide]
1 to 10	0.1 to 1	≤ 0.01	C[C@@H]1[C@H](NC(=O)c2ccc(N(C)C)cc2)CCCN1c1cnc(C(N)=O)c(Nc2cnn(C)c2)n1 [Example D-24, 5-[(2R,3R)-3-[4-(dimethylamino)benzamido]-2-methylpiperidin-1-yl]-3-[(1-methyl-1H-pyrazol-4-yl)amino]pyrazine-2-carboxamide]
1 to 10	0.01 to 0.1	≤ 0.01	C[C@@H]1[C@H](NC(=O)c2ccc3[nH]cnc3c2)CCCN1c1cnc(C(N)=O)c(Nc2cnn(C)c2)n1 [Example D-262, N-[(2R,3R)-1-{5-carbamoyl-6-[(1-methyl-1H-pyrazol-4-yl)amino]pyrazin-2-yl}-2-methylpiperidin-3-yl]-1H-1,3-benzodiazole-5-carboxamide]
1 to 10	0.01 to 0.1	0.01 to 0.1	C[C@@H]1[C@H](NC(=O)c2ccc(C3CC3)cn2)CCCN1c1cnc(C(N)=O)c(Nc2cnn(C)c2)n1 [Example D-21, 5-[(2R,3R)-3-(5-cyclopropylpyridine-2-amido)-2-methylpiperidin-1-yl]-3-[(1-methyl-1H-pyrazol-4-yl)amino]pyrazine-2-carboxamide]
0.1 to 1	0.01 to 0.1	≤ 0.01	C[C@@H]1[C@H](NC(=O)c2ccc(C3CC3)c(O)c2)CCCN1c1cnc(C(N)=O)c(Nc2cnn(C)c2)n1 [Example D-245, 5-[(2R,3R)-3-(4-cyclopropyl-3-hydroxybenzamido)-2-methylpiperidin-1-yl]-3-[(1-methyl-1H-pyrazol-4-yl)amino]pyrazine-2-carboxamide]
1 to 10	0.01 to 0.1	≤ 0.01	C[C@@H]1[C@H](NC(=O)c2ccc(C(O)C(F)(F)F)cc2)CCCN1c1cnc(C(N)=O)c(Nc2cnn(C)c2)n1 (single isomer, unassigned) [Example D-249]
0.1 to 1	0.01 to 0.1	≤ 0.01	C[C@@H]1[C@H](NC(=O)c2ccc(C(O)C(F)(F)F)cc2)CCCN1c1cnc(C(N)=O)c(Nc2cnn(C)c2)n1 (single isomer, unassigned) [Example D-250]
